Reference: ChEMBL document CHEMBL1201862, “PubChem BioAssay data set” (2004)
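Compound exposure: 48 hours, 5 concentrations, 96-well plates. GI50 = concentration required for 50% inhibition of growth.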 The source made the active and inactive calls. Cut-off read from the data, not from the text of the source: active = GI50 up to about 1.1 µM and inactive = higher.

Key:
Assay in all cases: inhibition of tumour cell growth, NCI panel, 48 h
[1] = system: HOP-92
[2] = system: M14
[3] = system: OVCAR-8
[4] = system: XF498
[5] = system: SF-295
[6] = system: NCI-H460
[7] = system: LOX IMVI
[8] = system: SK-MEL-2
[9] = system: HOP-62
[10] = system: NCI-H23
[11] = system: CCRF-CEM
[12] = system: M19-MEL
[13] = system: TK-10
[14] = system: IGROV-1
[15] = system: CAKI-1

Measured: GI50

C#C[C@]1(O)CCC2C3CCc4cc(Oc5nc(F)nc(-n6c(C)nc7cc8ccccc8cc76)n5)ccc4C3CCC21C (stereo not given in full)
inactive: [1] 16.3 µM | [2] 43.8 µM | [3] 39.1 µM | [4] 61 µM | [5] 33.8 µM | [6] 25.4 µM | [7] 40.1 µM | [8] 45.3 µM | [9] 35.7 µM | [10] 59.4 µM | [11] 36.9 µM | [12] 37.1 µM | [13] 65.9 µM | [14] 54.3 µM

CN(CC(=O)O)S(=O)(=O)c1ccc2ccccc2c1
inactive: [1] > 100 µM | [2] > 100 µM | [15] > 100 µM | [3] > 100 µM | [4] > 100 µM | [5] > 100 µM | [6] > 100 µM | [7] > 100 µM | [8] > 100 µM | [10] > 100 µM | [11] > 100 µM | [12] > 100 µM | [13] > 100 µM | [14] > 100 µM

CN1C(=O)CC2(C)c3cc(O)cc(Br)c3N(C)C12 (stereo not given)
inactive: [1] > 100 µM | [2] > 100 µM | [3] > 100 µM | [4] > 100 µM | [5] > 100 µM | [6] > 100 µM | [7] > 100 µM | [8] > 100 µM | [9] > 100 µM | [10] > 100 µM | [11] > 100 µM | [12] > 100 µM | [13] > 100 µM | [14] > 100 µM

Cc1ccc(NC(=O)C2C(=O)N(c3ccc(C)cc3)C(=O)/C2=N\NC(N)=S)cc1 (stereo not given)
inactive: [1] > 100 µM | [2] > 100 µM | [15] > 100 µM | [3] > 100 µM | [4] > 100 µM | [5] > 100 µM | [6] > 100 µM | [7] > 100 µM | [8] > 100 µM | [9] > 100 µM | [10] > 100 µM | [12] > 100 µM | [13] > 100 µM | [14] > 100 µM

CCCCCCCCCCCCC(Br)C(=O)SCCNC(=O)CCNC(=O)[C@@H](O)C(C)(C)COP(=O)(O)OP(=O)(O)OCC1OC(n2cnc3c(N)ncnc32)C(O)C1OP(=O)(O)O (stereo not given in full)
inactive: [1] > 56.5 µM | [2] > 56.5 µM | [3] 54.3 µM | [4] > 56.5 µM | [5] > 56.5 µM | [6] 22.5 µM | [7] 28.1 µM | [8] > 56.5 µM | [9] > 56.5 µM | [10] > 56.5 µM | [11] 35.4 µM | [12] > 56.5 µM | [13] > 56.5 µM | [14] > 56.5 µM
